Data on one compound can be found in PMC4051426 (Biochemistry, 2014).

The assay addresses triosephosphate isomerase from chicken muscle (cTIM), loop 6 replacement mutant (L6RM) (Gallus gallus, UniProt P00940, V167P/W168E). Kind of assay: steady-state kinetics of isomerization. The format is biochemical.

Each structure is given as a SMILES string.

triosephosphate isomerase from chicken muscle (cTIM), loop 6 replacement mutant (L6RM), sequence (P00940 2-248 V167P/W168E): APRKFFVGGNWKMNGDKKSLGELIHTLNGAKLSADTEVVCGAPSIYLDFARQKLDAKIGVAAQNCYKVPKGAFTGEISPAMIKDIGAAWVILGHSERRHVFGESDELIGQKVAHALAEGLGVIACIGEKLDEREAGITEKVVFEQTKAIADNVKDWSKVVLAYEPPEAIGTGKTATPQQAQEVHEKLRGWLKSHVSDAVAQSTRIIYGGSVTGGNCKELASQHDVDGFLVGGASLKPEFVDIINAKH

With `O=C[C@H](O)COP(=O)(O)O` [GAP, (R)-glyceraldehyde 3-phosphate], the “kcat/Km (M^-1 s^-1)” value is listed as 470 M^–1 s^–1 (kcat/Km).
